Results as given in patent publication US20210363152A1, “AMINOAZINE AMIDES” (Hoffmann-La Roche Inc., priority 2018, published 2021).

Biological target: T1, Autotaxin enzyme (ATX) (Homo sapiens, UniProt Q13822)
T1 construct: purchased Echelon Biosciences, Inc. E-4000
Test: In vitro ATX assay (enzymatic ATX inhibition, LPC 14:0 substrate, choline oxidase/HRP absorbance readout)
Type: biochemical
Details: 0.3 mM LPC 14:0, 37° C., 4 hours, absorbance 555 nm
Method: • Assay buffer: 100 mM Tris-HCl, pH 9.0, 500 mM NaCl, 5 mM MgCl2, 30 μM CoCl2, 0.05% Triton X-100 • Assay buffer II: 4.5 mM 4-AAP, 2.7 mM TOOS, 21.2 U/mL HRP, 3 U/mL CO, In 50 mM Tris-HCl pH 8.0, 4.5 mM MgCl2
A compound preparation plate (Nunc 249944) was prepared by adding 30 mM stock solution (in DMSO) of test compound and performing a serial full-log dilution down to 30 nM. Two μL/well were transferred from the first compound prep plate to a compound dilution plate (Corning, 3641) and 198 μL assay buffer I was added for a […].
A 10 ng/mL solution of ATX was prepared by diluting in assay buffer I, and 80 μL/well were added to the assay plate (Corning, 3641); negative control wells contained 80 μL/well assay buffer I only (no ATX). Ten μL/well from the compound dilution plate (containing serially diluted test compound or DMSO) were added to the assay plate, which was then incubated at 37° C. for 15 minutes. A solution of LPC 14:0 was prepared in assay buffer I at 3 mM and 10 μl/well were added to the assay plate, for a final concentration of 0.3 mM LPC, and returned to 37° C. incubator for 4 hours. After 4 hour incubation, 100 μL/well of assay buffer II was added to all wells of the assay plate. The plate was incubated at RT for 15 minutes, prior to reading on FlexStation in absorbance mode, 555 nm. Results in the enzymatic ATX inhibition assay are provided for compounds of formula (I). An IC50 value of “A” is less than 100 nM, “B” is equal to or greater than 100 nM but less than 1 μM, “C” is equal to or greater than 1 μM.

Row | IC50 | SMILES
1 | 100 to 1000 nM | O=C(c1cnc(NCc2cc(OC(F)(F)F)cc(C3CC3)c2)nc1)N1CCc2cccnc21 [Example 90, (2-((3-cyclopropyl-5-(trifluoromethoxy)benzyl)ami-no)pyrimidin-5-yl)(2,3-dihydro-1H-pyrrolo[2,3-b]pyridin-1-yl)methanone]
2 | 100 to 1000 nM | O=C(c1cnc(NCc2cc(OC(F)(F)F)cc(C3CC3)c2)nc1)N1CCc2cnccc21 [Example 91, (2-((3-cyclopropyl-5-(trifluoromethoxy)benzyl)ami-no)pyrimidin-5-yl)(2,3-dihydro-1H-pyrrolo[3,2-c]pyridin-1-yl)methanone]
3 | < 100 nM | CC(C)(C)OC(=O)N1CC2(CCN2C(=O)c2cnc(NCc3cc(OC(F)(F)F)cc(C4CC4)c3)nc2)C1 [Example 92, tert-butyl 1-(2-((3-cyclopropyl-5-(trifluoro-methoxy)benzyl)amino)py-rimidine-5-carbonyl)-1,6-diazaspiro[3.3]heptane-6-carboxylate]
4 | < 100 nM | CC1CC(C)N1C(=O)c1cnc(NCc2cc(OC(F)(F)F)cc(C3CC3)c2)nc1 (centres unmarked) [Example 93, (2-((3-cyclopropyl-5-(trifluoromethoxy)benzyl)ami-no)pyrimidin-5-yl)(2,4-dimethylazetidin-1-yl)methanone]
5 | 100 to 1000 nM | COC[C@@H]1CCCN1C(=O)c1cnc(NCc2cc(OC(F)(F)F)cc(C3CC3)c2)nc1 [Example 94, (S)-(2-((3-cyclopropyl-5-(trifluoromethoxy)benzyl)ami-no)pyrimidin-5-yl)(2-(methoxymethyl)pyrrolidin-1-yl)methanone]
6 | 100 to 1000 nM | COC[C@H]1CCCN1C(=O)c1cnc(NCc2cc(OC(F)(F)F)cc(C3CC3)c2)nc1 [Example 95, (R)-(2-((3-cyclopropyl-5-(trifluoromethxoy)benzyl)ami-no)pyrimidin-5-yl)(2-(methoxymethyl)pyrrolidin-1-yl)methanone]
7 | < 100 nM | O=C(c1cnc(NCc2cc(OC(F)(F)F)cc(C3CC3)c2)nc1)N1CCCC12COC2 [Example 96, (2-((3-cyclopropyl-5-(trifluoromethoxy)benzyl)ami-no)pyrimidin-5-yl)(2-oxa-5-azaspiro[3.4]octan-5-yl)methanone]
8 | < 100 nM | O=C(c1cnc(NCc2cc(OC(F)(F)F)cc(C3CC3)c2)nc1)N1CCC12CCOC2 (centres unmarked) [Example 97, (2-((3-cyclopropyl-5-(trifluoromethoxy)benzyl)ami-no)pyrimidin-5-yl)(6-oxa-1-azaspiro[3.4]octan-1-yl)methanone]
9 | < 100 nM | O=C(c1cnc(NCc2cc(OC(F)(F)F)cc(C3CC3)c2)nc1)N1CCc2ccncc21 [Example 98, (2-((3-cyclopropyl-5-(trifluoromethoxy)benzyl)ami-no)pyrimidin-5-yl)(2,3-dihydro-1H-pyrrolo[2,3-c]pyridin-1-yl)methanone]
10 | 100 to 1000 nM | COCC1CN(C(=O)c2cnc(NCc3cc(OC(F)(F)F)cc(C4CC4)c3)nc2)C1 [Example 99, (2-((3-cyclopropyl-5-(trifluoromethoxy)benzyl)ami-no)pyrimidin-5-yl)(3-(methoxymethyl)azetidin-1-yl)methanone]
11 | 100 to 1000 nM | CN(C)CC1CN(C(=O)c2cnc(NCc3cc(OC(F)(F)F)cc(C4CC4)c3)nc2)C1 [Example 100, (2-((3-cyclopropyl-5-(trifluoromethoxy)benzyl)ami-no)pyrimidin-5-yl)(3-((dimethylamino)methyl)azeti-din-1-yl)methanone]
12 | < 100 nM | O=C(c1cnc(NCc2cc(OC(F)(F)F)cc(C3CC3)c2)nc1)N1CCC12CCOCC2 [Example 101, (2-((3-cyclopropyl-5-(trifluoromethoxy)benzyl)ami-no)pyrimidin-5-yl)(7-oxa-1-azaspiro[3.5]nonan-1-yl)methanone]
13 | 100 to 1000 nM | O=C(c1cnc(NCc2cc(OC(F)(F)F)cc(C3CC3)c2)nc1)N1CC2(CCS2(=O)=O)C1 [Example 102, (2-((3-cyclopropyl-5-(trifluoromethoxy)benzyl)ami-no)pyrimidin-5-yl)(1,1-dioxido-1-thia-6-azaspiro[3.3]heptan-6-y)methanone]
14 | < 100 nM | COC[C@H]1CCN1C(=O)c1cnc(NCc2cc(OC(F)(F)F)cc(C3CC3)c2)nc1 [Example 103, (R)-(2-((3-cyclopropyl-5-(trifluoromethoxy)benzyl)ami-no)pyrimidin-5-yl)(2-(methoxymethyl)azetidin-1-yl)methanone]
15 | < 100 nM | COC[C@@H]1CCN1C(=O)c1cnc(NCc2cc(OC(F)(F)F)cc(C3CC3)c2)nc1 [Example 104, (S)-(2-((3-cyclopropyl-5-(trifluoromethoxy)benzyl)ami-no)pyrimidin-5-yl)(2-(methoxymethyl)azetidin-1-yl)methanone]
16 | 100 to 1000 nM | O=C(c1cnc(NCc2cc(OC(F)(F)F)cc(C3CC3)c2)nc1)N1CC2(CCO2)C1 [Example 105, (2-((3-cyclopropyl-5-(trifluoromethoxy)benzyl)ami-no)pyrimidin-5-yl)(1-oxa-6-azaspiro[3.3]heptan-6-yl)methanone]
17 | 100 to 1000 nM | O=C(c1cnc(NCc2cc(OC(F)(F)F)cc(C3CC3)c2)nc1)N1CC2(C1)CS(=O)(=O)C2 [Example 106, (2-((3-cyclopropyl-5-(trifluoromethoxy)benzyl)ami-no)pyrimidin-5-yl)(2,2-dioxido-2-thia-6-azaspiro[3.3]heptan-6-yl)methanone]
18 | < 100 nM | O=C(c1cnc(NCc2cc(OC(F)(F)F)cc(C3CC3)c2)nc1)N1CCC12CS(=O)(=O)C2 [Example 107, (2-((3-cyclopropyl-5-(trifluoromethoxy)benzyl)ami-no)pyrimidin-5-yl)(6,6-dioxido-6-thia-1-azaspiro[3.3]heptan-1-yl)-methanone]
19 | < 100 nM | O=C(c1cnc(NCc2cc(OC(F)(F)F)cc(C3CC3)c2)nc1)N1CCC12CCCOC2 (centres unmarked) [Example 108, (2-((3-cyclopropyl-5-(trifluoromethoxy)benzyl)ami-no)pyrimidin-5-yl)(6-oxa-1-azaspiro[3.5]nonan-1-yl)-methanone]
20 | < 100 nM | COC1CN(C(=O)c2cnc(NCc3cc(OC(F)(F)F)cc(C4CC4)c3)nc2)C1 [Example 109, (2-((3-cyclopropyl-5-(trifluoromethoxy)benzyl)ami-no)pyrimidin-5-yl)(3-methoxyazetidin-1-yl)-methanone]
21 | 100 to 1000 nM | CN(C)C1CN(C(=O)c2cnc(NCc3cc(OC(F)(F)F)cc(C4CC4)c3)nc2)C1 [Example 110, (2-((3-cyclopropyl-5-(trifluoromethoxy)benzyl)ami-no)pyrimidin-5-yl)(3-(dimethylamino)azetidin-1-yl)methanone]
22 | < 100 nM | O=C(c1cnc(NCc2cc(OC(F)(F)F)cc(C3CC3)c2)nc1)N1CCC2COCC21 (centres unmarked) [Example 111, (2-((3-cyclopropyl-5-(trifluoromethoxy)benzyl)ami-no)pyrimidin-5-yl)(hexahydro-1H-furo[3,4-b]pyrrol-1-yl)methanone]
23 | < 100 nM | CN1CCC2(CC1)CCN2C(=O)c1cnc(NCc2cc(OC(F)(F)F)cc(C3CC3)c2)nc1 [Example 112, (2-((3-cyclopropyl-5-(trifluoromethoxy)benzyl)ami-no)pyrimidin-5-yl)(7-methyl-1,7-diazaspiro[3.5]nonan-1-yl)methanone]
24 | < 100 nM | O=C(c1cnc(NCc2cc(OC(F)(F)F)cc(C3CC3)c2)nc1)N1CCC1C(F)F (centres unmarked) [Example 113, (2-((3-cyclopropyl-5-(trifluoromethoxy)benzyl)ami-no)pyrimidin-5-yl)(2-(difluoromethyl)azetidin-1-yl)methanone]
25 | 100 to 1000 nM | O=C(c1cnc(NCc2cc(OC(F)(F)F)cc(C3CC3)c2)nc1)N1CCC1C(F)(F)F (centres unmarked) [Example 114, (2-((3-cyclopropyl-5-(trifluoromethoxy)benzyl)ami-no)pyrimidin-5-yl)(2-(trifluoromethyl)azetidin-1-yl)methanone]
26 | < 100 nM | CC(C)(O)C1CCN1C(=O)c1cnc(NCc2cc(OC(F)(F)F)cc(C3CC3)c2)nc1 (centres unmarked) [Example 115, (2-((3-cyclopropyl-5-(trifluoromethoxy)benzyl)ami-no)pyrimidin-5-yl)(2-(2-hydroxypropan-2-yl)azetidin-1-yl)methanone]
27 | < 100 nM | CCc1cc(CNc2ncc(C(=O)N3CCC34COC4)cn2)cc(OC(F)(F)F)c1 [Example 123, (2-((3-Ethyl-5-(trifluoromethoxy)benzyl)amino)pyrimidin-5-yl)(6-oxa-1-azaspiro[3.3]heptan-1-yl)methanone]
28 | 100 to 1000 nM | Cc1ccc2c(c1)CC(Nc1ncc(C(=O)N3CCC34COC4)cn1)C2 (centres unmarked) [Example 124, (2-((5-Methyl-2,3-dihydro-1H-inden-2-yl)amino)pyrimidin-5-yl)(6-oxa-1-azaspiro[3.3]heptan-1-yl)methanone]
29 | < 100 nM | O=C(c1cnc(NC2Cc3ccc(C4CC4)cc3C2)nc1)N1CCC12COC2 (centres unmarked) [Example 125, (2-((5-Cyclopropyl-2,3-dihydro-1H-inden-2-yl)amino)pyrimidin-5-yl)(6-oxa-1-azaspiro[3.3]heptan-1-yl)methanone]
